From PubChem BioAssay (NCI)
Values joined by “and” are separate entries in the source; they are usually repeats but may differ in a detail not shown here. Equal entries are not always repeated.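 96-well plates; 48 h exposure; 5 concentrations. Endpoints by linear interpolation between flanking doses. Not reached: highest tested concentration assigned. GI50: concentration for 50% inhibition of growth. At the TGI there is no net growth.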

How the values were obtained:
Assay in all cases: NCI-60 cell line screen, 48 h
[1] = system: CAKI-1 renal
[2] = system: CCRF-CEM leukemia
[3] = system: EKVX NSCLC
[4] = system: M19-MEL melanoma
[5] = system: NCI-H226 lung
[6] = system: SF-268 CNS
[7] = system: SW-620 colon
[8] = system: U251 CNS
[9] = system: LXFL 529 NSCLC
[10] = system: MCF7 breast

SMILES	TGI [1]	TGI [2]	TGI [3]	TGI [4]	TGI [5]	TGI [6]	TGI [7]	TGI [8]	TGI [9]	GI50 [1]	GI50 [2]	GI50 [3]	GI50 [10]	TGI [10]	GI50 [5]	GI50 [6]	GI50 [7]	GI50 [8]
CSC(=NC(=O)c1ccccc1Cl)SCCSC(=NC(=O)c1ccccc1Cl)SC	> 100 µM	> 100 µM	> 100 µM	> 100 µM	> 100 µM	> 100 µM	> 100 µM	> 100 µM										
CC(Oc1ccc2c(-c3ccc(Cl)cc3)cc(=O)oc2c1)C(=O)O (stereo not given)	> 100 µM	> 100 µM	> 100 µM		> 100 µM	> 100 µM	> 100 µM	> 100 µM	> 100 µM									
c1ccc(SC(Sc2ccccc2)=C2CCC2)cc1	> 100 µM	> 100 µM	> 100 µM	> 100 µM		> 100 µM	> 100 µM	> 100 µM										
Cc1ccc(/C=C/C(=O)c2ccc(Cl)c(Cl)c2)cc1	> 100 µM	> 100 µM	> 100 µM		> 100 µM	> 100 µM	> 100 µM	> 100 µM	> 100 µM									
NCCCCC(NC(=O)C(N)CCCN=C(N)N)C(=O)NC(CCCCN)C(=O)NC(CCCN=C(N)N)C(=O)NC(CCCN=C(N)N)C(=O)NC(CCC(N)=O)C(=O)NC(CCCN=C(N)N)C(=O)NC(CCCN=C(N)N)C(=O)NC(CCCN=C(N)N)C(=O)NCC(=O)NCC(=O)O (stereo not given)	> 50 µM	8.52 µM	> 50 µM		> 50 µM	> 50 µM	> 50 µM	> 50 µM		> 50 µM	1.53 µM	> 50 µM	> 50 µM	> 50 µM	> 50 µM	> 50 µM	> 50 µM	> 50 µM
CC1(C)Oc2ccc3ccc(=O)oc3c2C(O)C1O (stereo not given)	> 100 µM	96.9 µM	> 100 µM		> 100 µM	> 100 µM	> 100 µM	> 100 µM						> 100 µM				
CCOC(=O)c1[nH]c2cc(Cl)ccc2c1[C@@H](C(=O)NC(C)(C)C)N(CC)C(=O)CCCCC#Cc1cccc2c1CN(C1CCC(=O)NC1=O)C2=O (stereo not given in full)	8.62 µM	> 100 µM	45.5 µM			28.7 µM	> 100 µM	18.1 µM		0.0355 µM	< 0.01 µM	1.39 µM	0.117 µM	> 100 µM	0.0343 µM	0.0476 µM	< 0.01 µM	1.84 µM
COc1cc2nc(Nc3cccc(Cl)c3)nc(N)c2cc1OC	27.9 µM	7.3 µM	27 µM		29.5 µM	19.9 µM	7.15 µM	9.96 µM		12.3 µM	2.36 µM	12.9 µM	4.32 µM	17.4 µM	16 µM	6.41 µM	2.68 µM	3.08 µM
COc1ccc(Br)cc1NC(=O)Nc1cccc2c1ccn2Cc1ccnc(N)c1	21.5 µM and > 10 µM	40 µM and > 10 µM	> 100 µM		48.4 µM and > 10 µM	32.5 µM and > 10 µM	8.41 µM and > 10 µM	15.6 µM and > 10 µM		4.79 µM and 8.78 µM	3.92 µM and 5.43 µM	7.36 µM and 9.64 µM	3.82 µM and 5.69 µM	20.7 µM and > 10 µM	6.45 µM and 8.39 µM	6.16 µM and > 10 µM	2.85 µM and 6.72 µM	4.55 µM and 5.4 µM
C(=N\Nc1ncc(-c2cc3cc4c(cc3o2)OCO4)s1)/c1ccco1	6.69 µM	16.2 µM	10.9 µM		18.9 µM	23.1 µM	2.48 µM	14.5 µM		0.854 µM	0.551 µM	2.25 µM	0.683 µM	7.18 µM	3.67 µM	2.67 µM	0.681 µM	2.9 µM
Cn1ncc(Cl)c1-c1cc(C(=O)N[C@H](CN)Cc2cccc(F)c2)sc1Cl	> 9.48 µM and 15.5 µM	> 10 µM and 10.5 µM	> 10 µM		> 10 µM and 32.2 µM	> 9.54 µM and 17.1 µM	> 10 µM and 21 µM	> 4.58 µM and 12.8 µM		1.45 µM and 3.03 µM	0.349 µM and 0.294 µM	3.24 µM		2.6 µM and 11.4 µM	> 4.48 µM and 11.6 µM	1.72 µM and 3.64 µM	2.16 µM and 7.33 µM	0.346 µM and 0.742 µM
Cc1ccc(CNc2ccc3nc(CCC4CCCCC4)[nH]c3c2)cc1	7.03 µM	> 100 µM	6.47 µM		3.92 µM	> 100 µM	4.64 µM	3.62 µM		2.67 µM	3.29 µM	2.12 µM	2.14 µM	6.24 µM	1.77 µM	3.08 µM	1.99 µM	1.79 µM
COc1ccccc1C#Cc1ccccc1C#Cc1ccc(OCCCCCCOc2ccccc2C#Cc2ccccc2C#Cc2ccccc2OC)cc1	> 100 µM	> 100 µM	> 100 µM		> 100 µM	> 100 µM	> 100 µM	> 100 µM		> 100 µM	> 100 µM	> 100 µM	> 100 µM	> 100 µM	> 100 µM	> 100 µM	> 100 µM	> 100 µM
Oc1ccccc1-c1nn(CNc2ccc(Cl)cc2)c(=S)o1	> 100 µM	> 100 µM	> 100 µM		> 100 µM	> 100 µM	> 100 µM	> 100 µM		3.71 µM	> 100 µM	> 100 µM	4.17 µM	> 100 µM	14.1 µM	9.2 µM	22.4 µM	31.9 µM
O=c1cc(-c2ccc(F)cc2)[nH]c2ncccc12	> 100 µM	> 100 µM	> 100 µM		> 100 µM	> 100 µM	> 100 µM	> 100 µM						> 100 µM				48.2 µM
COc1cc2nc(N3CCCN(C)CC3)nc(NC3CCN(Cc4ccccc4)CC3)c2cc1OC	3.71 µM	> 24.6 µM	13.9 µM		9.08 µM	8.65 µM	9.64 µM	5.96 µM		1.63 µM	2.37 µM	3.83 µM	2.08 µM	7.65 µM	2.68 µM	2.72 µM	2.96 µM	2.22 µM
CSc1cc([C@@H]2C[C@H]2c2ccc(Cl)cc2)on1	35.7 µM	47.2 µM	55.8 µM		36.8 µM	46.3 µM	59.8 µM	32.3 µM		12.5 µM	20.3 µM	29.8 µM	16.3 µM	41 µM	11.4 µM	21 µM	20.7 µM	9.24 µM
Cc1ccc2c(C(C[N+](=O)[O-])c3ccccc3)c(-c3ccccc3)[nH]c2c1 (stereo not given)	> 95 µM	> 95 µM	> 95 µM		> 95 µM	> 95 µM	> 95 µM	> 95 µM		4.73 µM	25.2 µM	75.9 µM	13.5 µM	> 95 µM	62.4 µM	73.3 µM	16.6 µM	32 µM
COc1ccc(-c2ncnc3c2ncn3CC#CCCl)cc1	3.11 µM	42.7 µM	29.6 µM		26.2 µM	4.13 µM	12.4 µM	4.85 µM		1.47 µM	3.84 µM	12.8 µM	2.48 µM	12.2 µM	4.45 µM	1.66 µM	2.99 µM	1.96 µM
Cc1ccc(NCC2(/N=C/c3ccccc3)OC(CO)C(O)C2O)cc1 (stereo not given)	> 100 µM	99.2 µM			> 100 µM	> 100 µM	> 100 µM	83.7 µM	> 100 µM									
COC[C@H](NC(=O)c1cnc(C)s1)C(=O)N[C@@H](COC)C(=O)N[C@@H](Cc1ccccc1)C(=O)[C@@]1(C)CO1	> 100 µM	> 100 µM	> 100 µM		46.6 µM	> 100 µM	> 100 µM	> 100 µM		38.5 µM	21.3 µM	44.4 µM	11.1 µM	> 100 µM	17.4 µM	48.4 µM	21.2 µM	47.8 µM
Fc1cccc(COc2ccc(Nc3ncnc4onc(-c5ccccc5)c34)cc2)c1	> 100 µM	> 50.4 µM	> 100 µM		> 100 µM	> 100 µM	> 100 µM	> 86.8 µM		0.573 µM	0.287 µM	1.61 µM	0.0393 µM	> 100 µM	3.06 µM	0.384 µM	0.139 µM	0.215 µM
Cc1c(CN2CCN(C(=O)[C@H](C)O)CC2)sc2c(N3CCOCC3)nc(-c3cnc(N)nc3)nc12	> 4.52 µM and 2.14 µM	> 100 µM	2.26 µM and 2.34 µM		6.15 µM	> 10 µM and 27.1 µM	> 100 µM	> 35.8 µM		0.159 µM and 0.213 µM	1.11 µM and 0.322 µM	0.121 µM and 0.21 µM	0.0428 µM and 0.0379 µM	> 100 µM	0.345 µM and 0.159 µM	0.328 µM and 0.204 µM	0.473 µM and 0.285 µM	1.05 µM and 0.328 µM
CC1SC(c2ccccc2Cl)N(NC(=O)C(O)c2ccccc2)C1=O (stereo not given)	> 100 µM	> 100 µM	> 100 µM		> 100 µM	> 100 µM	> 100 µM	> 100 µM		44.6 µM	> 100 µM	> 100 µM	54.6 µM	> 100 µM	> 100 µM	> 100 µM	> 100 µM	66.9 µM
